This is an account of results in patent US6117869A, “Compounds for and methods of inhibiting matrix metalloproteinases” (Warner-Lambert Company, priority 1999, dated 2000).

Test [1] deals with experimental allergic encephalomyelitis (EAE). The following applies: dose dependent; cited from earlier work.
The subject of a further test is pig articular cartilage. To be noted: cited from earlier work.
The subject of the next test is bovine nasal cartilage. The following applies: cited from earlier work.
Test [2] deals with human ovarian carcinoma xenografts. To be noted: mice bearing human ovarian carcinoma xenografts; cited from earlier work.
For a further test, the target named is MMP-9 (Homo sapiens, UniProt P14780). Description: Thiopeptolide assay, MMP-9. The following applies: thiopeptolide substrate. It is filed as biochemical. How it is done:
[The source words this procedure for another target and reports this target under the same test.] (§1) IC50 values were determined using a thiopeptolide substrate, Ac-Pro-Leu-Gly-thioester-Leu-Leu-Gly-OEt (Ye Q. Z., Johnson L. L., Hupe D. J., and Baragi V., "Purification and Characterization of the Human Stromelysin Catalytic Domain Expressed in Escherichia coli," Biochemistry,1992;31:11231-11235). MMP-1, MMP-7, and MMP-13 activity was assayed in a method similar to MMP-2 and MMP-3 (SCD and GCD). MMP-1 can be obtained from Washington University School of Medicine, St. Louis, Mo. MMP-7 can be obtained in accordance with the known procedure set forth by Ye Q. Z., Johnson L. L., and Baragi V., "Gene Syntheses and Expression in E. coli for PUMP, a Human Matrix Metalloproteinase," Biochem. and Biophys. Res. Comm., 1992;186:143-149. MMP13 can be obtained in accordance with the known procedure set forth by Freije J. M. P. et al., "Molecular Cloning and Expression of Collegenase-3, a Novel Human Matrix Metalloproteinase Produced by Breast Carcinomas," J. Bio. Chem., 1994;269:16766-16773.
(§2) Hydrolysis of the thiopeptolide substrate Ac-Pro-Leu-Gly-thioester-Leu-Leu-Gly-OEt (Bachem) is used as the primary screen to determine IC50 values for MMP inhibitors. A 100 μL reaction contains 1 mM 5,5'-dithiobis(2-nitrobenzoic acid) (DTNB), 100 μM substrate, 0.1% BRIJ® 35, PROTEIN GRADE®, Detergent, 10% solution, Sigma, St. Louis, Mo. [polyoxyethyleneglycol dodecyl ether; polyoxyethylene (23) lauryl ether], enzyme, and inhibitor in the appropriate reaction buffer. Activated full-length enzymes are assayed at 5 nM, Stromelysin Catalytic Domain (SCD) at 10 nM, and Gelatinase A Catalytic Domain (GaCD) at 1 nM. Inhibitors are screened from 100 μM to 1 nM. Full-length enzymes (MMP-1 and MMP-7) are assayed in 50 mM HEPES, 10 mM CaCl2, pH 7.0; SCD in 50 mM MES, 10 mM CaCl2, pH 6.0; and GaCD in 50 mM MOPS, 10 mM CaCl2, 10 μM ZnCl2, pH 7.0. The change in absorbance at 405 nm is monitored on a ThermoMax microplate reader at room temperature continuously for 20 minutes.

The next test concerns MMP-14CD. As to the kind of experiment: Thiopeptolide assay, MMP-14CD. The following applies: catalytic domain; thiopeptolide substrate. It is filed as biochemical. How it is done:
as §1, §2

Another test addresses T1, MMP-3CD (Homo sapiens, UniProt P08254).
T1 construct: Stromelysin Catalytic Domain (SCD) at 10 nM; made in house; host or cells: Escherichia coli
Description: Thiopeptolide assay, stromelysin-1 catalytic domain (SCD). It is filed as biochemical. To be noted: 10 nM, pH 6.0, 100 μM thiopeptolide substrate. How it is done: as §1, §2

Another test addresses T2, MMP-1 (Homo sapiens, UniProt P03956).
T2 construct: purchased Washington University School of Medicine, St. Louis, Mo
T2 sequence (P03956 100-469): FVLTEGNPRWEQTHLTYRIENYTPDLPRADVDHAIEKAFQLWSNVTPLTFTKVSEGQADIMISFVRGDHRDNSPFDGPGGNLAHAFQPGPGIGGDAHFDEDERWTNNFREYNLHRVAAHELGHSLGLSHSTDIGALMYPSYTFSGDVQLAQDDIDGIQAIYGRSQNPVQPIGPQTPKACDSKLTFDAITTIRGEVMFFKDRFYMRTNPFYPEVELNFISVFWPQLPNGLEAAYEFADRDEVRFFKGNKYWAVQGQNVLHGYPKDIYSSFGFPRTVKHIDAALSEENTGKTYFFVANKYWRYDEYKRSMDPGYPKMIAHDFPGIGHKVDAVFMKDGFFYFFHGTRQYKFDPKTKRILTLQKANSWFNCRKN
As to the kind of experiment: Thiopeptolide assay, MMP-1. It is filed as biochemical. The following applies: full-length enzyme, 5 nM; pH 7.0; 100 μM thiopeptolide substrate. How it is done: as §1, §2

The next test deals with MMP-13CD. Description: Thiopeptolide assay, MMP-13CD. The following applies: catalytic domain; thiopeptolide substrate. It is filed as biochemical, Human. How it is done:
as §1, §2

A further test concerns the target T3, MMP-7 (Homo sapiens, UniProt P09237).
T3 construct: made in house; host or cells: E. coli
T3 sequence (P09237 95-267): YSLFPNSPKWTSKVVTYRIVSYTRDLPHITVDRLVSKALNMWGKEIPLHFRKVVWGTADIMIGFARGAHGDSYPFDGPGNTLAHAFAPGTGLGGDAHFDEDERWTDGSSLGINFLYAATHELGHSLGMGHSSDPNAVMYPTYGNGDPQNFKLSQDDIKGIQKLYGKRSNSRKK
As to the kind of experiment: Thiopeptolide assay, MMP-7. The class given is biochemical. The following applies: full-length enzyme, 5 nM; pH 7.0; 100 μM thiopeptolide substrate. How it is done:
as §1, §2

The next test deals with MMP-2CD. Description: Thiopeptolide assay, gelatinase A catalytic domain (GCD/GaCD). The class given is biochemical. To be noted: 1 nM, pH 7.0, 100 μM thiopeptolide substrate. How it is done:
as §1, §2

T1 sequence (P08254 100-272 limits assumed): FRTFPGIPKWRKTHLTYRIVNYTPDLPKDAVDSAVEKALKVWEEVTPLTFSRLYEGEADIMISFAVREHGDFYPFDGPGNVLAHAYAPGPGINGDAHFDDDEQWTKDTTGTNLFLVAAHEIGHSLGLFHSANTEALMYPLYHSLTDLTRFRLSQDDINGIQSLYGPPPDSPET
Chain of MMP-9 (P14780 94-707): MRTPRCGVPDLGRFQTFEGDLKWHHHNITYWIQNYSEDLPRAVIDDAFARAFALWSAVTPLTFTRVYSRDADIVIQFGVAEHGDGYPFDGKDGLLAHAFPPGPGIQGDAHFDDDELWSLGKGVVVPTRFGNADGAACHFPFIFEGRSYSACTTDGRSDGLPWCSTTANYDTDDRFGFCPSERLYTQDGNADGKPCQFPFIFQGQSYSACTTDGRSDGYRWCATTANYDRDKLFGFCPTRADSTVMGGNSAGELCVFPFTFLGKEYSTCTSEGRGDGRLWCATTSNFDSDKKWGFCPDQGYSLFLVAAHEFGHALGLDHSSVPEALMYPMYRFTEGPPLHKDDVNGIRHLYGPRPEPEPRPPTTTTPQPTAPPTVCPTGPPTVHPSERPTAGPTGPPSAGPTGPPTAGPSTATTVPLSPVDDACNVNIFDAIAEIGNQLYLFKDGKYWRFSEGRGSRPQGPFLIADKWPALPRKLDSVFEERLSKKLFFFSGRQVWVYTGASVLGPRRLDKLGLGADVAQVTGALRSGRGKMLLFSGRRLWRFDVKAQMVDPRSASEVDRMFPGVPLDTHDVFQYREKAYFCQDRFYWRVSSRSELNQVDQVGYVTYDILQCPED

As for `CNC(=O)[C@H](Cc1c[nH]c2ccccc12)NC(=O)[C@@H](CC(=O)NO)CC(C)C` [GM6001], the “development or clinical expression of EAE” value in [1] was “suppressed the development or reversed the clinical expression”.
Consider “TIMP-1: tissue inhibitors of metalloproteinases”, for which the “formation of collagen and proteoglycan fragments” value in the test with pig articular cartilage is given as “prevented the formation of collagen fragments, but not proteoglycan fragments”; with bovine nasal cartilage, “prevented the formation of collagen fragments, but not proteoglycan fragments”.
Take `CNC(=O)[C@H](Cc1ccccc1)NC(=O)[C@H](CC(C)C)[C@H](CSc1cccs1)C(=O)NO` [BB-94]: in test [2], the survival result is “prolonged the survival” and the tumor burden entry is listed as “decreased the tumor burden”.
Take `O=C(O)[C@H](CSC(c1ccccc1)(c1ccccc1)c1ccccc1)NS(=O)(=O)c1ccc2c(c1)Sc1ccccc1O2` [Example 13, (R)-2-(Phenoxathiine-2-sulfonylamino)-3-tritylsulfanyl-propionic acid]: the IC50 against MMP-9 was more than 100 µM; in the test on MMP-14CD it was 7.4 µM; at MMP-3CD, 4.65 µM; on MMP-1, more than 100 µM; in the test with MMP-13CD, 36 µM; against MMP-7, 66 µM. Further, the IC50 against MMP-2CD amounted to 3.2 µM.
On to `O=C(O)[C@H](CO)NS(=O)(=O)c1ccc2c(c1)Sc1ccccc1O2` [Example 5, (S)-3-Hydroxy-2-(phenoxathiine-2-sulfonylamino)-propionic acid], for which the half-inhibitory concentration (IC50) at MMP-9 is 82 µM; with MMP-14CD it was 0.39 µM; at MMP-3CD, 0.18 µM; on MMP-1, more than 100 µM; with MMP-13CD, 1.8 µM; at MMP-7, 23 µM. This compound gave an IC50 against MMP-2CD of 0.069 µM.
